Experimental findings from ChEMBL document CHEMBL1127764, “An efficient method for the synthesis of guanidino prodrugs” (Bioorg Med Chem Lett, 1994) are described below.

The species named for series [1] is Rattus norvegicus. The series is described as follows: Half-life in vitro in rat plasma; No detectable degradation over 2 hr; no detectable degradation over 2 hours. The format is ADME.
For series [2], the system named is Caco-2. Briefly: Permeability coefficient in Caco-2 cell line monolayers was tested. It is filed as functional, Homo sapiens.
Series [3] is described as follows: Half-life in vitro in rat plasma. It is filed as ADME.
Series [4] in a line: Half-life in vitro in pig liver. It is filed as ADME, tissue-based, Sus scrofa.

Bounds are passed on as bounds.

For the compound `N=C(N)NCc1ccccc1`, the T1/2 entry in series [1] is listed as “Stable”. For the same compound, the Pc in series [2] came to 2.24 ×10⁻⁶ cm/s.

`CC(C)(C)C(=O)OCOC(=O)/N=C(/NCc1ccccc1)NC(=O)OCOC(=O)C(C)(C)C` registered a half-life in series [3] of 1.12 min. The Pc in series [2] turned out to be 3.69 ×10⁻⁶ cm/s.

`NC(=O)CCCCCCN=C(N)N`: the half-life in series [4] was below 5 min.

The compound `O=C(/N=C(/NCc1ccccc1)NC(=O)OCc1ccccc1)OCc1ccccc1` displayed a half-life in series [3] of 12.5 min. In series [2], the Pc turned out to be 0.51 ×10⁻⁶ cm/s.

`O=C(Cc1ccccc1)OCOC(=O)/N=C(/NCc1ccccc1)NC(=O)OCOC(=O)Cc1ccccc1`: in series [3], the half-life came to 0.13 min. Besides, in series [2], the Pc is 8.55 ×10⁻⁶ cm/s.

As to `O=C(/N=C(/NCc1ccccc1)NC(=O)Oc1ccccc1)Oc1ccccc1`, the half-life in series [3] was found to be 0.46 min. The same compound came in with a Pc in series [2] of 6.45 ×10⁻⁶ cm/s.
